The target of this test is Phospholipase D2 (Homo sapiens) + Phospholipase D2 (Homo sapiens) (UniProt O14939+O14939). Kind of test: cellular phospholipase D2 inhibitors, IC50 – cell-based, Lib32, assay 2B, dose response (AID 624004). As to conditions: cellular PLD2 activity assay.
Chain of Phospholipase D2 (Homo sapiens) + Phospholipase D2 (Homo sapiens) (O14939 whole entry, looked up): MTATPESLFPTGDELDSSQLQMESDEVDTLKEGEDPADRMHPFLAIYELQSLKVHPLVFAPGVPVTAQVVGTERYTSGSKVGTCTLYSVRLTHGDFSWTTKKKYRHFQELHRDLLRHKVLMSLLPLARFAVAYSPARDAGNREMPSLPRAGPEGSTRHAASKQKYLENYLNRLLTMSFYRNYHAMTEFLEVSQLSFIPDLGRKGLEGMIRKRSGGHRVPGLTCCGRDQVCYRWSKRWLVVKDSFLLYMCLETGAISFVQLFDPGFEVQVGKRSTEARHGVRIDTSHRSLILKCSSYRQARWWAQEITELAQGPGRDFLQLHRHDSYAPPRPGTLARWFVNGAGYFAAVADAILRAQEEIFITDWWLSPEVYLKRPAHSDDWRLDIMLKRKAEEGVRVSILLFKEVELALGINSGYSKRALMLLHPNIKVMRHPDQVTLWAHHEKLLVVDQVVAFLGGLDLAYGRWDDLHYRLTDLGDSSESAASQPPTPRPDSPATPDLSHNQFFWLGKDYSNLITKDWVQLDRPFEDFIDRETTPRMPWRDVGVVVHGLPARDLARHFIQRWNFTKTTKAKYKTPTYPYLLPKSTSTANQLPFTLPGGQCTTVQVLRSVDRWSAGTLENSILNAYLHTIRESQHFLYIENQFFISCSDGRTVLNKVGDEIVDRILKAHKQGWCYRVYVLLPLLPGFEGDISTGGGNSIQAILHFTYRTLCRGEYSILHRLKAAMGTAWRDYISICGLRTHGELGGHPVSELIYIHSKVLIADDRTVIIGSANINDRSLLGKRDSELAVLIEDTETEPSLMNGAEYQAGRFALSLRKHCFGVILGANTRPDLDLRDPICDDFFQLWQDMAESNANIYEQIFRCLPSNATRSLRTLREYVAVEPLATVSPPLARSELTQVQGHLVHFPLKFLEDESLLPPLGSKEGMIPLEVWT
Chain of Phospholipase D2 (Homo sapiens) + Phospholipase D2 (Homo sapiens) (O14939 whole entry, looked up): as above
Turning to `C[C@@H](CN1CCC2(CC1)C(=O)NCN2c1cccc(F)c1)NC(=O)c1ccc(F)cc1`, the IC50 is 34 nM.
As to `COc1cc(C(=O)N[C@@H](C)CN2CCC3(CC2)C(=O)NCN3c2cccc(F)c2)cc(OC)c1OC`, the IC50 was 72 nM.
The figure for `O=C(NCCN1CCC2(CC1)C(=O)NCN2c1cccc(F)c1)c1ccc(Br)cc1` is 200 nM.
In the case of `C[C@@H](CN1CCC2(CC1)C(=O)NCN2c1cccc(F)c1)NC(=O)c1ccc(F)c(F)c1` it was 120 nM; in that of `C[C@@H](CN1CCC2(CC1)C(=O)NCN2c1cccc(F)c1)NC(=O)c1cccc(F)c1`, 1200 nM.
With `C[C@@H](CN1CCC2(CC1)C(=O)NCN2c1cccc(F)c1)NC(=O)c1ccc(F)cc1F`, the half-inhibitory concentration (IC50) was 947 nM.
In the case of `O=C(NCCN1CCC2(CC1)C(=O)NCN2c1cccc(F)c1)c1ccc(F)cc1` it was 355 nM; in that of `C[C@@H](CN1CCC2(CC1)C(=O)NCN2c1cccc(F)c1)NC(=O)c1cccc([N+](=O)[O-])c1`, 430 nM; in that of `COc1cc(C(=O)NCCN2CCC3(CC2)C(=O)NCN3c2cccc(F)c2)cc(OC)c1OC`, 1430 nM.
`C[C@@H](CN1CCC2(CC1)C(=O)NCN2c1cccc(F)c1)NC(=O)c1ccc(Br)cc1`: the IC50 is 84 nM.

In general, IC50 refers to the concentration that gives 50% inhibition.

The values are drawn from PubChem BioAssay AID624004 (Vanderbilt Specialized Chemistry Center, 2012).
